# From publication PMC11544713, “The Application of Untargeted Metabolomic Approaches for the Search of Common Bioavailable Metabolites in Human Plasma Samples from Lippia citriodora and Olea europaea Extracts” (Journal of Agricultural and Food Chemistry, 2024)
# Structures can show the parent of a compound that is named as a salt.
# How the values were obtained:
# [1] = Acute intervention: nutrikinetics of plasma metabolites after ingestion of L. citriodora extract (untargeted HPLC-ESI-QTOF-MS)
# Procedure: A total of 25 healthy individuals participated, with an average age of 27 ± 9 years and a mean body mass index (BMI) of 23 ± 3 kg/m^2. None of the participants were taking any medications or nutritional supplements nor did they have any chronic diseases or gastrointestinal issues. The sample size was established based on findings from previous bioavailability research.[14] All participants provided informed consent before participating in the study.
# The intervention study was carried out at Miguel Hernández University. Following an overnight fast, the volunteers were categorized into the subsequent groups: a subgroup to evaluate the LC leaf extract (n = 8), another for the OE leaf extract (n = 8), and the placebo subgroup (n = 9). This was a double-blind study, in which sample collection and treatment were carried out uniformly across all three subgroups.
# Water was provided ad libitum. Prior to the ingestion of the capsule, a nurse inserted a cannula into the ulnar vein of each volunteer’s nondominant arm, and blood samples were drawn into EDTA-coated tubes at baseline (t = 0). Blood samples were then collected at 0.5, 1, 2, 4, 6, 8, and 10 h after the consumption of the 500 mg capsule. Plasma was separated through centrifugation (10 min at 3000 rpm and 4 °C) and stored at −80 °C until further analysis.
# Plasma samples were initially treated using a mixture of methanol and ethanol (50:50; v:v) to remove proteins, following previously reported protocols.[19] During the sample treatment, pooled quality controls (pooled-QC) were prepared by combining equal aliquots from each sample. These QC samples were processed by using the same protocols as the experimental biological samples.
# A reversed-phase analytical C18 column (Agilent Zorbax Eclipse Plus, 1.8 μm, 4.6 × 150 mm^2) with a protective cartridge with the same packing was used. MS data were acquired in negative ionization mode, operating in full scan across a mass-to-charge ratio (m/z) range of 50–1700. The analytical method used was adapted from that described by Villegas-Aguilar et al.[19]
# Metabolite nutrikinetics were studied using PKSolver, an add-in program for pharmacokinetic data analysis in Microsoft Excel. The time to reach the maximum concentration (observed Tmax) was calculated for each significant metabolite. As an untargeted metabolomic approach was used to detect the circulating metabolites, these were not quantified. Therefore, the maximum concentration (Cmax) and area under the curve (AUC) parameters were calculated in a relative way by using the deconvoluted chromatographic areas. […] Statistical differences were determined by unpaired t tests. All p values less than 0.05 were considered statistically significant.
# [2] = Acute intervention: nutrikinetics of plasma metabolites after ingestion of O. europaea extract (untargeted HPLC-ESI-QTOF-MS)
# Method in brief: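 Fasted healthy volunteers (n = 8 per extract, placebo n = 9, double-blind) took one 500 mg capsule. Plasma was drawn at 0–10 h, protein-precipitated with methanol:ethanol and analysed by C18 HPLC-ESI-QTOF-MS in negative full scan (m/z 50–1700). Tmax was observed; Cmax and AUC are relative, from deconvoluted peak areas.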
# [3] = 0.5 h after L. citriodora extract
# [4] = 1 h after L. citriodora extract
# [5] = 2 h after L. citriodora extract
# [6] = 4 h after L. citriodora extract
# [7] = 6 h after L. citriodora extract
# [8] = 8 h after L. citriodora extract
# [9] = 10 h after L. citriodora extract
# [10] = human plasma, 500 mg capsule of L. citriodora (LC) extract, oral, mean ± SD
# [11] = 0.5 h after O. europaea extract
# [12] = human plasma, 500 mg capsule of O. europaea (OE) extract, oral, mean ± SD
Compound,"mean chromatographic area in plasma, T0.5 [1, 3]","mean chromatographic area in plasma, T1 [1, 4]","mean chromatographic area in plasma, T2 [1, 5]","mean chromatographic area in plasma, T4 [1, 6]","mean chromatographic area in plasma, T6 [1, 7]","mean chromatographic area in plasma, T8 [1, 8]","mean chromatographic area in plasma, T10 [1, 9]","AUC: area under the zero-moment curve [1, 10]","Cmax: relative maximum plasma level [1, 10]","observed Tmax: time required to reach Cmax [1, 10] [h]","mean chromatographic area in plasma, T0.5 [2, 11]","mean chromatographic area in plasma, T1 ([2]; 1 h after O. europaea extract)","mean chromatographic area in plasma, T2 ([2]; 2 h after O. europaea extract)","mean chromatographic area in plasma, T4 ([2]; 4 h after O. europaea extract)","mean chromatographic area in plasma, T6 ([2]; 6 h after O. europaea extract)","mean chromatographic area in plasma, T8 ([2]; 8 h after O. europaea extract)","mean chromatographic area in plasma, T10 ([2]; 10 h after O. europaea extract)","Cmax: relative maximum plasma level [2, 12]","observed Tmax: time required to reach Cmax [2, 12] [h]","AUC: area under the zero-moment curve ([1]; human, in vivo, po, 500 mg)",also measured
Cc1cccc(O)c1O [3-methylcatechol],0,0,0,86,91,76,58,565 ± 407 relative chromatographic area/h,169 ± 59 relative chromatographic area,8 ± 3,290,235,50,64,16,13,0,307 ± 160 relative chromatographic area,0.6 ± 0.2,,
COc1cc(C=CC(=O)O)ccc1OS(=O)(=O)O [ferulic acid 4-sulfate],33,131,259,230,222,152,39,1752 ± 1781 relative chromatographic area/h,354 ± 254 relative chromatographic area,3 ± 2,0,78,84,22,18,0,0,142 ± 20 relative chromatographic area,1.6 ± 0.5,,
"COc1cc(CC(=O)O)ccc1OS(=O)(=O)O [homovanillic acid sulfate isomer 1, homovanillic acid sulfate]",,,,,,,,,,,,,,,,,,,,1391 ± 1144 relative chromatographic area/h,"Cmax: relative maximum plasma level ([1]; human, in vivo, po, 500 mg): 341 ± 164 relative chromatographic area; mean chromatographic area in plasma, T0.5 ([1]; in vivo): 0; mean chromatographic area in plasma, T1 ([1]; in vivo): 0; mean chromatographic area in plasma, T2 ([1]; in vivo): 19; mean chromatographic area in plasma, T4 ([1]; in vivo): 147; mean chromatographic area in plasma, T6 ([1]; in vivo): 209; mean chromatographic area in plasma, T8 ([1]; in vivo): 221; mean chromatographic area in plasma, T10 ([1]; in vivo): 207; Cmax: relative maximum plasma level ([2]; human, in vivo, po, 500 mg): 233 ± 69 relative chromatographic area; mean chromatographic area in plasma, T0.5 ([2]; in vivo): 65; mean chromatographic area in plasma, T1 ([2]; in vivo): 212; mean chromatographic area in plasma, T2 ([2]; in vivo): 192; mean chromatographic area in plasma, T4 ([2]; in vivo): 165; mean chromatographic area in plasma, T6 ([2]; in vivo): 119; mean chromatographic area in plasma, T8 ([2]; in vivo): 108; mean chromatographic area in plasma, T10 ([2]; in vivo): 75"
COc1cc(CCO)ccc1OS(=O)(=O)O [homovanillyl alcohol sulfate],0,0,0,45,81,76,31,437 ± 278 relative chromatographic area/h,156 ± 49 relative chromatographic area,7 ± 2,0,94,111,61,0,0,0,135 ± 32 relative chromatographic area,2.0 ± 0.9,,
OCCc1ccc(O)c(O)c1 [hydroxytyrosol],,,,,,,,,,,,,,,,,,,,,"AUC of the sulfated form compared to the glucuronidated form ([1]; human, in vivo): about 10 times; detection in plasma samples ([2]; in vivo): detected in plasma samples"
"COc1cc(C(=O)O)ccc1OS(=O)(=O)O [vanillic acid 4-O-sulfate isomer 1, vanillic acid 4-O-sulfate]",0,0,97,395,548,588,365,3576 ± 3122 relative chromatographic area/h,874 ± 644 relative chromatographic area,8 ± 3,275,489,354,279,216,137,60,489 ± 147 relative chromatographic area,1.0 ± 0.0,,
homovanillic acid glucuronide,,,,,,,,,,,,,,,,,,,,1345 ± 1042 relative chromatographic area/h,"Cmax: relative maximum plasma level ([1]; human, in vivo, po, 500 mg): 360 ± 219 relative chromatographic area; mean chromatographic area in plasma, T0.5 ([1]; in vivo): 0; mean chromatographic area in plasma, T1 ([1]; in vivo): 0; mean chromatographic area in plasma, T2 ([1]; in vivo): 0; mean chromatographic area in plasma, T4 ([1]; in vivo): 114; mean chromatographic area in plasma, T6 ([1]; in vivo): 232; mean chromatographic area in plasma, T8 ([1]; in vivo): 219; mean chromatographic area in plasma, T10 ([1]; in vivo): 214; Cmax: relative maximum plasma level ([2]; human, in vivo, po, 500 mg): 199 ± 54 relative chromatographic area; mean chromatographic area in plasma, T0.5 ([2]; in vivo): 13; mean chromatographic area in plasma, T1 ([2]; in vivo): 94; mean chromatographic area in plasma, T2 ([2]; in vivo): 99; mean chromatographic area in plasma, T4 ([2]; in vivo): 182; mean chromatographic area in plasma, T6 ([2]; in vivo): 141; mean chromatographic area in plasma, T8 ([2]; in vivo): 80; mean chromatographic area in plasma, T10 ([2]; in vivo): 58"
pteroside Z [pteroside Z isomer 2],,,,,,,,,,,,,,,,,,,,310 ± 84 relative chromatographic area/h,"Cmax: relative maximum plasma level ([1]; human, in vivo, po, 500 mg): 181 ± 58 relative chromatographic area; observed Tmax: time required to reach Cmax ([1]; human, in vivo, po, 500 mg): 2 ± 1 h; mean chromatographic area in plasma, T0.5 ([1]; in vivo): 28; mean chromatographic area in plasma, T1 ([1]; in vivo): 152; mean chromatographic area in plasma, T2 ([1]; in vivo): 97; mean chromatographic area in plasma, T4 ([1]; in vivo): 18; mean chromatographic area in plasma, T6 ([1]; in vivo): 0; mean chromatographic area in plasma, T8 ([1]; in vivo): 0; mean chromatographic area in plasma, T10 ([1]; in vivo): 0"
